Values after ≈ are worked out from the molar mass of the structure shown. Like-named read-outs stand apart in the source and are kept apart here.
Columns and labels:
[1] = tested on: Staphylococcus aureus subsp. aureus; experiment: Minimum inhibitory concentration (MIC) test, broth microdilution method; type: cell-based; details: 35±1° C., 18 to 24 hours, replicates
Experimental: (§1) An MIC test was conducted by applying the minimum inhibitory concentration (MIC) measurement method by the broth microdilution method (the standard method of Japanese Society of Chemotherapy). The clarithromycin suspension prepared in Example 6 (1) (test substance 1) was used as a test substance. An unpulverized clarithromycin suspension (test substance 2) and a clarithromycin solution in DMSO (test substance 3) were used as controls for comparisons.
(§2) Each of the test substances was stirred for 15 seconds or more using a vortex mixer before dilution. The clarithromycin-containing samples (test substances 1 to 3) were diluted with Mueller Hinton II broth to be a concentration of 250 μg/mL, and then two-fold diluted serially to prepare mediums containing the each sample at a final drug concentration of 0.012 to 25 μg/mL, which were used for inoculation of Staphylococcus aureus subsp. aureus. Similarly, the samples were diluted with Mueller Hinton II broth to a concentration of 1000 μg/mL, and then two-fold diluted serially to prepare mediums containing the each sample at a final drug concentration of 0.049 to 100 μg/mL, which were used for inoculating Pseudomonas aeruginosa.
(§3) To a U-shaped well microplate, 0.1±0.02 mL per well of the each prepared test substance-containing medium was dispensed. Drug-free medium was dispensed into two wells as a control.
(§4) Staphylococcus aureus subsp. aureus or Pseudomonas aeruginosa was cultured overnight in Mueller Hinton II agar medium. The fresh cultured bacterium on the agar plate was suspended in equivalent to 0.5 McFarand (about 10^8 CFU/mL) with sterilized saline and further diluted tenfold (about 10^7 CFU/mL) with sterilized saline to prepare a bacterium liquid.
(§5) To each of the wells to which the test substance-containing medium or the test substance-free medium was dispensed, 0.005 mL of the bacterium liquid of Staphylococcus aureus subsp. aureus or Pseudomonas aeruginosa prepared in the above (2-2) was inoculated (final amount of bacterium liquid: about 10^4 CFU/well). The bacterium liquid was not inoculated to a part of the wells with the test substance-free medium to prepare negative control wells. After inoculation, the media were cultured at 35±1° C. for 18 to 24 hours.
(§6) After confirming growth in the control wells containing the test substance-free media, the minimum inhibitory concentration (MIC) was determined as the minimum drug concentration in which the growth of bacterium was not detected with the naked eye. […] When turbidity or a precipitation was not observed with the naked eye, or when only one precipitation with the diameter of 1 mm or less was observed, the growth was determined negative (−).

[2] = tested on: Pseudomonas aeruginosa; experiment: as above; type: cell-based; details: 35±1° C., 18 to 24 hours, replicates
Experimental: as §1, §2, §3, §4, §5, §6

[3] = formulation with effective average diameter of less than 2000 nm combined with a surface stabilizer (Patent Literature 4); cited from earlier work
[4] = cited from earlier work
[5] = tested on: nontuberculous mycobacteria; details: cited from earlier work
[6] = Stability test of nanoized clarithromycin suspension formulation, residual ratio by HPLC (Example 10); type: physicochemical; details: 5° C., 25° C. and 40° C., 14 days
Experimental: A quantity of 6 to 8 g of the nanoized clarithromycin suspension formulations (clarithromycin concentrations 0.3% and 1.0%) produced in Example 7 (1) were weighed in a 9 mL-screw vial, allowed to stand in thermo-hygrostats each set at 5° C., 25° C., and 40° C. to carry out the stability test over a period of 14 days. On days 7 and 14, the clarithromycin concentrations were determined by high performance liquid chromatography (HPLC), and the residual ratio was determined as compared to the clarithromycin concentration immediately after the formulation which was taken as 100% to evaluate the stability. The HPLC analysis conditions were as follows.
Apparatus: Waters alliance
Column: Inertsil ODS 4.6 mm×150 mm
Column temperature: 50° C.
Detection wavelength: 210 nm

[7] = rabbit, in vivo; cited from earlier work

| Compound | MIC [1] | Minimum inhibitory concentration [1] | MIC [2] | Minimum inhibitory concentration [2] | oral bioavailability [3] | solubility in acetone ([4]; acetone) | solubility in chloroform ([4]; chloroform) | solubility in ethanol ([4]; ethanol) | solubility in ether ([4]; ether) | solubility ([4]; formulation with effective average diameter of less than 2000 nm combined with a surface stabilizer (Patent Literature 4)) | solubility in methanol ([4]; methanol) | solubility ([4]; pulverized with L-ascorbic-acid 2-glycoside (Non Patent Literature 1)) | solubility in water ([4]; water) | effectiveness against nontuberculous mycobacteria relative to azithromycin [5] | stability (decomposition) in the suspension formulations [6] | retention in the cornea [7] |
| --- | --- | --- | --- | --- | --- | --- | --- | --- | --- | --- | --- | --- | --- | --- | --- | --- |
| CC[C@H]1OC(=O)[C@H](C)[C@@H](O[C@H]2C[C@@](C)(OC)[C@@H](O)[C@H](C)O2)[C@H](C)[C@@H](O[C@@H]2O[C@H](C)C[C@H](N(C)C)[C@H]2O)[C@](C)(OC)C[C@@H](C)C(=O)[C@H](C)[C@@H](O)[C@]1(C)O [Clarithromycin solution in DMSO, clarithromycin] | 0.391 µg/mL (≈ 0.523 µM) | 0.391 µg/mL (≈ 0.523 µM) | > 100 µg/mL | >100 µg/mL |  |  |  |  |  |  |  |  |  |  |  |  |
| CC[C@H]1OC(=O)[C@H](C)[C@@H](O[C@H]2C[C@@](C)(OC)[C@@H](O)[C@H](C)O2)[C@H](C)[C@@H](O[C@@H]2O[C@H](C)C[C@H](N(C)C)[C@H]2O)[C@](C)(OC)C[C@@H](C)C(=O)[C@H](C)[C@@H](O)[C@]1(C)O [clarithromycin] |  |  |  |  | higher oral bioavailability | slightly soluble | slightly soluble | very slightly soluble | very slightly soluble | higher solubility | very slightly soluble | enhanced solubility | practically insoluble | four to eight times as effective as azithromycin | not decomposed but stable | retained in the cornea |

From patent US10792248B2, “Aqueous suspension preparation comprising nanoparticles of macrolide antibacterial agent” (ACTIVUS PHARMA CO., LTD., priority 2013, dated 2020)
